Test results from PMC7717600, “Novel [(N-alkyl-3-indolylmethylene)hydrazono]oxindoles arrest cell cycle and induce cell apoptosis by inhibiting CDK2 and Bcl-2: synthesis, biological evaluation and in silico studies” (Journal of Enzyme Inhibition and Medicinal Chemistry, 2020).

Experiments:
HCT-116 = experiment: SRB anti-proliferative assay; format: cell-based; details: Homo sapiens; HCT-116, SRB, mean ± SE of 3
Description: (§1) All the newly prepared target conjugates (7, 8a–c, 9 and 10a–e) were investigated for the prospective growth inhibitory actions against three different cancer cell lines viz.; A-549, MDA-MB-231, and HCT-116, using the sulforhodamine B colorimetric (SRB) assay. Staurosporine, a clinically used antitumor drug, was co-assayed as a reference agent for the experiment.
(§2) Examination of the cytotoxic activity for the target conjugates was carried out in accordance with the SRB colorimetric assay protocol, as described previously.
(§3) In vitro anti-proliferative activity assay
(§4) Cells at a concentration of 0.50 x
(§5) Sulfo-Rhodamine-B stain (SRB) assay.
(§6) cell to the wall of the plate.
(§7) wells were prepared for each individual dose).
(§8) Unbound dye was removed by four

MDA-MB-231 = experiment: SRB anti-proliferative assay; format: cell-based; details: Homo sapiens; MDA-MB-231, SRB, mean ± SE of 3
Description: as §1, §2, §3, §4, §5, §6, §7, §8

HCT-15 = details: HCT-15, 10 μM
UO-31 = details: UO-31, 10 μM
A-549 = experiment: SRB anti-proliferative assay; format: cell-based; details: Homo sapiens, A549; A-549, SRB, mean ± SE of 3
Description: Staurosporine, a clinically used antitumor drug, was co-assayed as a reference agent for the experiment.
as §2, §3, §4, §5, §6, §7, §8

T-47D = details: 10 μM
UACC-257 = details: UACC-257, 10 μM
SF-539 = details: SF-539, 10 μM
MDA-MB-231/ATCC = details: MDA-MB-231, 10 μM
KM12 = details: KM12, 10 μM
A498 = details: A498, 10 μM
HT29 = details: HT29, 10 μM
SK-MEL-5 = details: SK-MEL-5, 10 μM
HOP-92 = details: HOP-92, 10 μM

CCCn1cc(/C=N/N=C2\C(=O)Nc3ccc(OC(F)(F)F)cc32)c2ccccc21 [Compound 8b]
IC50 (HCT-116): 19.1 ± 1.34 µM
IC50 (MDA-MB-231): 8.9 ± 0.61 µM
GI % (HCT-15): 23%
GI % (UO-31): 19%
IC50 (A-549): 9.2 ± 0.78 µM
GI % (T-47D): 35%
GI % (UACC-257): – (Only GI % higher than 10% are shown)
GI % (SF-539): – (Only GI % higher than 10% are shown)
GI % (MDA-MB-231/ATCC): – (Only GI % higher than 10% are shown)
GI % (KM12): – (Only GI % higher than 10% are shown)
GI % (A498): – (Only GI % higher than 10% are shown)
GI % (HT29): 25%
GI % (SK-MEL-5): – (Only GI % higher than 10% are shown)
GI % (HOP-92): – (Only GI % higher than 10% are shown)

CCCn1cc(C=NN=C2C(=O)Nc3ccc([N+](=O)[O-])cc32)c2ccccc21 [Compound 8c]
IC50 (HCT-116): 6.4 ± 0.5 µM
IC50 (MDA-MB-231): 15.6 ± 0.98 µM
GI % (HCT-15): – (Only GI % higher than 10% are shown)
GI % (UO-31): – (Only GI % higher than 10% are shown)
IC50 (A-549): 12.3 ± 1.05 µM
GI % (T-47D): – (Only GI % higher than 10% are shown)
GI % (UACC-257): – (Only GI % higher than 10% are shown)
GI % (SF-539): 10%
GI % (MDA-MB-231/ATCC): – (Only GI % higher than 10% are shown)
GI % (KM12): 11%
GI % (A498): – (Only GI % higher than 10% are shown)
GI % (HT29): – (Only GI % higher than 10% are shown)
GI % (SK-MEL-5): – (Only GI % higher than 10% are shown)
GI % (HOP-92): 11%

CC(C)n1cc(C=NN=C2C(=O)Nc3ccccc32)c2ccccc21 [Compound 9]
IC50 (HCT-116): 28.2 ± 1.73 µM
IC50 (MDA-MB-231): 10.4 ± 0.8 µM
GI % (HCT-15): – (Only GI % higher than 10% are shown)
GI % (UO-31): 14%
IC50 (A-549): 31.7 ± 2.27 µM
GI % (T-47D): 13%
GI % (UACC-257): – (Only GI % higher than 10% are shown)
GI % (SF-539): – (Only GI % higher than 10% are shown)
GI % (MDA-MB-231/ATCC): 11%
GI % (KM12): – (Only GI % higher than 10% are shown)
GI % (A498): – (Only GI % higher than 10% are shown)
GI % (HT29): – (Only GI % higher than 10% are shown)
GI % (SK-MEL-5): – (Only GI % higher than 10% are shown)
GI % (HOP-92): 14%

C=CCn1cc(C=NN=C2C(=O)Nc3ccccc32)c2ccccc21 [Compound 10a]
IC50 (HCT-116): 7.7 ± 0.68 µM
IC50 (MDA-MB-231): 11.7 ± 1.04 µM
GI % (HCT-15): 15%
GI % (UO-31): 33%
IC50 (A-549): 17.3 ± 1.19 µM
GI % (T-47D): 56%
GI % (UACC-257): – (Only GI % higher than 10% are shown)
GI % (SF-539): – (Only GI % higher than 10% are shown)
GI % (MDA-MB-231/ATCC): – (Only GI % higher than 10% are shown)
GI % (KM12): – (Only GI % higher than 10% are shown)
GI % (A498): – (Only GI % higher than 10% are shown)
GI % (HT29): 10%
GI % (SK-MEL-5): – (Only GI % higher than 10% are shown)
GI % (HOP-92): – (Only GI % higher than 10% are shown)

C=CCn1cc(C=NN=C2C(=O)Nc3c(F)cccc32)c2ccccc21 [Compound 10c]
IC50 (HCT-116): 7.3 ± 0.47 µM
IC50 (MDA-MB-231): 35.4 ± 1.92 µM
GI % (HCT-15): 22%
GI % (UO-31): 29%
IC50 (A-549): 43.8 ± 2.96 µM
GI % (T-47D): 50%
GI % (UACC-257): – (Only GI % higher than 10% are shown)
GI % (SF-539): – (Only GI % higher than 10% are shown)
GI % (MDA-MB-231/ATCC): – (Only GI % higher than 10% are shown)
GI % (KM12): – (Only GI % higher than 10% are shown)
GI % (A498): – (Only GI % higher than 10% are shown)
GI % (HT29): – (Only GI % higher than 10% are shown)
GI % (SK-MEL-5): – (Only GI % higher than 10% are shown)
GI % (HOP-92): – (Only GI % higher than 10% are shown)
